Results as given in US20250213735A1, “NEUROPEPTIDE Y1 RECEPTOR (NPY1R) TARGETED THERAPEUTICS AND USES THEREOF” (Radionetics Oncology, Inc., priority 2023, published 2025).
Numbered stars: 1 amine (or outer) side, 2 acyl side, 3 side chain; on linkers, the order of the positions; unused ones are H or OH. Square brackets hold non-standard residues; d marks the D form. Peptide text beside a SMILES is read from it. * marks the point of attachment. dArg(Nω-CONH(CH2)2NHCOEt) = CCC(=O)NCCNC(=O)/N=C(/N)NCCC[C@@H](N)C(=O)O; DOTA = O=C(O)CN1CCN(CC(=O)O)CCN(CC(=O)*)CCN(CC(=O)O)CC1; X2 = O=C([C@H](c1cccc(NCCCN[*:1])c1)N1Cc2ccccc2C1)[*:2]; NH(4-OH-benzyl) = Oc1ccc(CN*)cc1; Sar = CNCC(=O)O

target: hNPY1R (Homo sapiens (Human), UniProt P25929); assay: NPY1R binding assay (SK-N-MC membrane, [125I]-Peptide YY competition); settings: crude SK-N-MC membranes endogenously expressing NPY1R; [125I]-Peptide YY (human) 0.05 nM; 120 min at room temperature; read-out: hNPY1R binding Ki;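 further: bound radioligand separated by filtration over GF/C filter plates and counted, Ki obtained by non-linear regression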
Sequence (P25929 whole entry): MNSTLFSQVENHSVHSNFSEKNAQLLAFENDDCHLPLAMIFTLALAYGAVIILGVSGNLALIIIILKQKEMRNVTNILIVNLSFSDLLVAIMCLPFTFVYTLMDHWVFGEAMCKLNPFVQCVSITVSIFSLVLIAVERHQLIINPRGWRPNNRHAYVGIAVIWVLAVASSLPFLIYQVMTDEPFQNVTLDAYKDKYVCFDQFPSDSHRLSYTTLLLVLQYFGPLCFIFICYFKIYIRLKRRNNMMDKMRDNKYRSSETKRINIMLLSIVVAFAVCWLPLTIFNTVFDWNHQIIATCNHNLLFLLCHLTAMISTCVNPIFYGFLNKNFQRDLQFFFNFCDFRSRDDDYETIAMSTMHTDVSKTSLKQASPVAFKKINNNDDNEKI
Method: Crude membrane fractions are prepared from SK-N-MC cells endogenously expressing the NPY1R receptor. The cells are grown to 85-100% confluence on standard tissue culture dishes in Eagle's Minimum Essential Medium supplemented with 10% dialyzed FBS. To prepare membranes, cells are scraped and collected in 1× Dulbecco's phosphate buffered saline and then pelleted at 1000 RPM's. The cell pellet is reconstituted in membrane preparation buffer (20 mM HEPES, 6 mM MgCl2 and 1 mM EGTA, protease inhibitor tablets, pH 7.4) and placed in a cell disruption vessel at 1000 PSI for 30 minutes on ice. The pressurized contents are then released and spun down at 1000 RPMs and the supernatant is collected and further centrifuged at 15,000 RPMs to pellet the membranes. The membrane pellet is resuspended in membrane preparation buffer, snap frozen and stored at −80° C. for later use.
Assay contents are then filtered through unifilter GF/C microplates and washed with 9×400 μl of cold wash buffer (25 mM HEPES, 5 mM MgCl2, 1 mM CaCl2), 500 mM NaCl, 0.1% Tween-20, pH 7.4). Assay plates are read using a Top Count NXT and Ki values for compounds are determined using a GraphPad Prism 6 non-linear regression analysis.

Compound | Ki [nM]
CCC(=O)NCCNC(=O)/N=C(/N)NCCC[C@@H](NC(=O)[C@H](c1ccc(OCCCNC(=O)[C@H]2CC[C@H](CNC(=O)CN3CCN(CC(=O)O)CCN(CC(=O)O)CCN(CC(=O)O)CC3)CC2)cc1)N1Cc2ccccc2C1)C(=O)NCc1ccc(O)cc1 [compound 18, 2,2′,2″-(10-(2-((((1S,4r)-4-((3-(4-((1S,4R,Z)-9-amino-4-((4-hydroxybenzyl)carbamoyl)-1-(isoindolin-2-yl)-2,11,16-trioxo-3,8,10,12,15-pentaazaoctadec-9-en-1-yl)phenoxy)propyl)carbamoyl)cyclohexyl)methyl)amino)-2-oxoethyl)-1,4,7,10-tetraazacyclododecane-1,4,7-triyl)triacetic acid] | < 10
CCC(=O)NCCNC(=O)/N=C(/N)NCCC[C@@H](NC(=O)[C@H](c1cccc(NCCCNC(=O)CCCCCNC(=O)CN2CCN(CC(=O)O)CCN(CC(=O)O)CCN(CC(=O)O)CC2)c1)N1Cc2ccccc2C1)C(=O)NCc1ccc(O)cc1 [compound 19, 2,2′,2″-(10-(2-((6-((3-((3-((1S,4R,Z)-9-amino-4-((4-hydroxybenzyl)carbamoyl)-1-(isoindolin-2-yl)-2,11,16-trioxo-3,8,10,12,15-pentaazaoctadec-9-en-1-yl)phenyl)amino)propyl)amino)-6-oxohexyl)amino)-2-oxoethyl)-1,4,7,10-tetraazacyclododecane-1,4,7-triyl)triacetic acid] | < 10
CCC(=O)NCCNC(=O)/N=C(/N)NCCC[C@@H](NC(=O)[C@H](c1cccc(NCCCNC(=O)CCOCCNC(=O)CN2CCN(CC(=O)O)CCN(CC(=O)O)CCN(CC(=O)O)CC2)c1)N1Cc2ccccc2C1)C(=O)NCc1ccc(O)cc1 [compound 20, 2,2′,2″-(10-(2-((2-(3-((3-((3-((1S,4R,Z)-9-amino-4-((4-hydroxybenzyl)carbamoyl)-1-(isoindolin-2-yl)-2,11,16-trioxo-3,8,10,12,15-pentaazaoctadec-9-en-1-yl)phenyl)amino)propyl)amino)-3-oxopropoxy)ethyl)amino)-2-oxoethyl)-1,4,7,10-tetraazacyclododecane-1,4,7-triyl)triacetic acid] | < 10
CCC(=O)NCCNC(=O)/N=C(/N)NCCC[C@@H](NC(=O)[C@H](c1cccc(NCCCNC(=O)CN(C)C(=O)CN(C)C(=O)CN(C)C(=O)CN2CCN(CC(=O)O)CCN(CC(=O)O)CCN(CC(=O)O)CC2)c1)N1Cc2ccccc2C1)C(=O)NCc1ccc(O)cc1 [compound 21, 2,2′,2″-(10-(15-((3-((1S,4R,Z)-9-amino-4-((4-hydroxybenzyl)carbamoyl)-1-(isoindolin-2-yl)-2,11,16-trioxo-3,8,10,12,15-pentaazaoctadec-9-en-1-yl)phenyl)amino)-3,6,9-trimethyl-2,5,8,11-tetraoxo-3,6,9,12-tetraazapentadecyl)-1,4,7,10-tetraazacyclododecane-1,4,7-triyl)triacetic acid] ({DOTA}-[Sar][Sar][Sar][X2][dArg(Nω-CONH(CH2)2NHCOEt)]-{NH(4-OH-benzyl)}) | < 10
CCC(=O)NCCNC(=O)/N=C(/N)NCCC[C@@H](NC(=O)[C@H](c1cccc(NCCCNC(=O)NOCCNC(=O)CN2CCN(CC(=O)O)CCN(CC(=O)O)CCN(CC(=O)O)CC2)c1)N1Cc2ccccc2C1)C(=O)NCc1ccc(O)cc1 [compound 22, 2,2′,2″-(10-(12-((3-((1S,4R,Z)-9-amino-4-((4-hydroxybenzyl)carbamoyl)-1-(isoindolin-2-yl)-2,11,16-trioxo-3,8,10,12,15-pentaazaoctadec-9-en-1-yl)phenyl)amino)-2,8-dioxo-6-oxa-3,7,9-triazadodecyl)-1,4,7,10-tetraazacyclododecane-1,4,7-triyl)triacetic acid] | < 10
CCC(=O)NCCNC(=O)/N=C(/N)NCCC[C@@H](NC(=O)[C@H](c1cccc(NCCCNC(=O)CCOCCOCCOCCOCCOCCOCCNC(=O)CN2CCN(CC(=O)O)CCN(CC(=O)O)CCN(CC(=O)O)CC2)c1)N1Cc2ccccc2C1)C(=O)NCc1ccc(O)cc1 [compound 23, 2,2′,2″-(10-(28-((3-((1S,4R,Z)-9-amino-4-((4-hydroxybenzyl)carbamoyl)-1-(isoindolin-2-yl)-2,11,16-trioxo-3,8,10,12,15-pentaazaoctadec-9-en-1-yl)phenyl)amino)-2,24-dioxo-6,9,12,15,18,21-hexaoxa-3,25-diazaoctacosyl)-1,4,7,10-tetraazacyclododecane-1,4,7-triyl)triacetic acid] | < 10
CCC(=O)NCCNC(=O)/N=C(/N)NCCC[C@@H](NC(=O)[C@H](c1cccc(NCCCNC(=O)[C@H](N)CCCCNC(=O)CN2CCN(CC(=O)O)CCN(CC(=O)O)CCN(CC(=O)O)CC2)c1)N1Cc2ccccc2C1)C(=O)NCc1ccc(O)cc1 [compound 25, 2,2′,2″-(10-(2-(((R)-5-amino-6-((3-((3-((1S,4R,Z)-9-amino-4-((4-hydroxybenzyl)carbamoyl)-1-(isoindolin-2-yl)-2,11,16-trioxo-3,8,10,12,15-pentaazaoctadec-9-en-1-yl)phenyl)amino)propyl)amino)-6-oxohexyl)amino)-2-oxoethyl)-1,4,7,10-tetraazacyclododecane-1,4,7-triyl)triacetic acid] | < 10
CCC(=O)NCCNC(=O)/N=C(/N)NCCC[C@@H](NC(=O)[C@H](c1cccc(NCCCNC(=O)CCC(=O)NCCNC(=O)CN2CCN(CC(=O)O)CCN(CC(=O)O)CCN(CC(=O)O)CC2)c1)N1Cc2ccccc2C1)C(=O)NCc1ccc(O)cc1 [compound 26, 2,2′,2″-(10-(2-((2-(4-((3-((3-((1S,4R,Z)-9-amino-4-((4-hydroxybenzyl)carbamoyl)-1-(isoindolin-2-yl)-2,11,16-trioxo-3,8,10,12,15-pentaazaoctadec-9-en-1-yl)phenyl)amino)propyl)amino)-4-oxobutanamido)ethyl)amino)-2-oxoethyl)-1,4,7,10-tetraazacyclododecane-1,4,7-triyl)triacetic acid] | < 10
CCC(=O)NCCNC(=O)/N=C(/N)NCCC[C@@H](NC(=O)[C@H](c1cccc(NCCCNC(=O)CCCCCNC(=O)NCCONC(=O)CN2CCN(CC(=O)O)CCN(CC(=O)O)CCN(CC(=O)O)CC2)c1)N1Cc2ccccc2C1)C(=O)NCc1ccc(O)cc1 [compound 27, 2,2′,2″-(10-(19-((3-((1S,4R,Z)-9-amino-4-((4-hydroxybenzyl)carbamoyl)-1-(isoindolin-2-yl)-2,11,16-trioxo-3,8,10,12,15-pentaazaoctadec-9-en-1-yl)phenyl)amino)-2,8,15-trioxo-4-oxa-3,7,9,16-tetraazanonadecyl)-1,4,7,10-tetraazacyclododecane-1,4,7-triyl)triacetic acid] | < 10
CCC(=O)NCCNC(=O)/N=C(/N)NCCC[C@@H](NC(=O)[C@H](c1cccc(NCCCNC(=O)CCCCCNC(=O)CN2CCC(NC(=O)CN3CCN(CC(=O)O)CCN(CC(=O)O)CCN(CC(=O)O)CC3)CC2)c1)N1Cc2ccccc2C1)C(=O)NCc1ccc(O)cc1 [compound 28, 2,2′,2″-(10-(2-((1-(2-((6-((3-((3-((1S,4R,Z)-9-amino-4-((4-hydroxybenzyl)carbamoyl)-1-(isoindolin-2-yl)-2,11,16-trioxo-3,8,10,12,15-pentaazaoctadec-9-en-1-yl)phenyl)amino)propyl)amino)-6-oxohexyl)amino)-2-oxoethyl)piperidin-4-yl)amino)-2-oxoethyl)-1,4,7,10-tetraazacyclododecane-1,4,7-triyl)triacetic acid] | < 10
CCC(=O)NCCNC(=O)/N=C(/N)NCCC[C@@H](NC(=O)[C@H](c1cccc(NCCCNC(=O)C[C@H](O)C[C@H](O)CCNC(=O)CN2CCN(CC(=O)O)CCN(CC(=O)O)CCN(CC(=O)O)CC2)c1)N1Cc2ccccc2C1)C(=O)NCc1ccc(O)cc1 [compound 29, 2,2′,2″-(10-(2-(((3R,5R)-7-((3-((3-((1S,4R,Z)-9-amino-4-((4-hydroxybenzyl)carbamoyl)-1-(isoindolin-2-yl)-2,11,16-trioxo-3,8,10,12,15-pentaazaoctadec-9-en-1-yl)phenyl)amino)propyl)amino)-3,5-dihydroxy-7-oxoheptyl)amino)-2-oxoethyl)-1,4,7,10-tetraazacyclododecane-1,4,7-triyl)triacetic acid] | < 10
CCC(=O)NCCNC(=O)/N=C(/N)NCCC[C@@H](NC(=O)[C@H](c1cccc(NCCCNC(=O)[C@@H](CO)NC(=O)CCNC(=O)CN2CCN(CC(=O)O)CCN(CC(=O)O)CCN(CC(=O)O)CC2)c1)N1Cc2ccccc2C1)C(=O)NCc1ccc(O)cc1 [compound 30, 2,2′,2″-(10-(2-((3-(((R)-1-((3-((3-((1S,4R,Z)-9-amino-4-((4-hydroxybenzyl)carbamoyl)-1-(isoindolin-2-yl)-2,11,16-trioxo-3,8,10,12,15-pentaazaoctadec-9-en-1-yl)phenyl)amino)propyl)amino)-3-hydroxy-1-oxopropan-2-yl)amino)-3-oxopropyl)amino)-2-oxoethyl)-1,4,7,10-tetraazacyclododecane-1,4,7-triyl)triacetic acid] | < 10
CCC(=O)NCCNC(=O)/N=C(/N)NCCC[C@@H](NC(=O)[C@H](c1ccccc1)N1Cc2cccc(NCCCNC(=O)CCCCCNC(=O)CN3CCN(CC(=O)O)CCN(CC(=O)O)CCN(CC(=O)O)CC3)c2C1)C(=O)NCc1c(F)cc(O)cc1F [compound 33, 2,2′,2″-(10-(2-((6-((3-((2-((1S,4R,Z)-9-amino-4-((2,6-difluoro-4-hydroxybenzyl)carbamoyl)-2,11,16-trioxo-1-phenyl-3,8,10,12,15-pentaazaoctadec-9-en-1-yl)isoindolin-4-yl)amino)propyl)amino)-6-oxohexyl)amino)-2-oxoethyl)-1,4,7,10-tetraazacyclododecane-1,4,7-triyl)triacetic acid] | < 10
CCC(=O)NCCNC(=O)/N=C(/N)NCCC[C@@H](NC(=O)[C@H](c1ccccc1)N1Cc2cccc(NCCCNc3c(NCCCCCCNC(=O)CN4CCN(CC(=O)O)CCN(CC(=O)O)CCN(CC(=O)O)CC4)c(=O)c3=O)c2C1)C(=O)NCc1c(F)cc(O)cc1F [compound 34, 2,2′,2″-(10-(2-((6-((2-((3-((2-((1S,4R,Z)-9-amino-4-((2,6-difluoro-4-hydroxybenzyl)carbamoyl)-2,11,16-trioxo-1-phenyl-3,8,10,12,15-pentaazaoctadec-9-en-1-yl)isoindolin-4-yl)amino)propyl)amino)-3,4-dioxocyclobut-1-en-1-yl)amino)hexyl)amino)-2-oxoethyl)-1,4,7,10-tetraazacyclododecane-1,4,7-triyl)triacetic acid] | < 10
